Assay results taken from US4368203A, “Antibiotics and derivatives thereof having β-lactamase inhibitory activity and production thereof” (priority 1977, dated 1983).
≈ marks a conversion by molar mass, not a printed value. Where two headings read alike, the source gives them in different places.

Experiments:
[1] = system: Staphylococcus aureus FDA 209P; test: MIC, broth dilution method; assay type: cell-based; settings: Staphylococcus aureus, FDA209P; Table 7; no unit in the head; read-out: Minimum inhibitory concentration
[2] = system: Diplococcus pneumoniae Type III; test: MIC, broth dilution method; assay type: cell-based; settings: Streptococcus pneumoniae; Table 7; no unit in the head; horse serum in the medium at 10%; read-out: Minimum inhibitory concentration
[3] = system: Inducible penicillinase of Bacillus cereus 569 (ATCC 27348); test: Susceptibility to beta-lactamase as enzymic substrate; assay type: biochemical; settings: for Km: 30° C., pH 6.8 phosphate buffer, decrease of optical density at 301 nm (PS-6) or 308 nm (PS-7); for Behavior against β-lactamase: β-lactamase of Bacillus cereus
Protocol: (b) Inducible penicillinase of Bacillus cereus 569 (ATCC 27348). This beta-lactamase was induced by ampicillin and purified by CM-cellulose column chromatography.
Time course of the hydrolysis was traced at 30° C. by determining the decrease in optical density at 301 nm which corresponds specifically to the concentration of antibiotic PS-6. As described in Japanese Patent Application No. 94651/77, the antibiotic PS-5 sodium salt preparation gave a E1 cm^1% value of 267.5 at the λmax of 301 nm. If this preparation contained no water of crystallization, its epsilon value would be 8560.
As 5% of the initial optical density of antibiotic PS-5 at 301 nm remained even after the complete decomposition with hydroxylamine or beta-lactamase, the differential optical density of this substrate at 301 nm was supposed to be Δε=8132. This was supposed to be applicable to the antibiotic PS-6, and the following calculation was carried out.
(b) Inducible penicillinase of Bacillus cereus 569. Time course of the hydrolysis of antibiotic PS-6 by this beta-lactamase was followed under the above-described conditions by determining the optical density at 301 nm of the reaction mixtures containing 7.5 μl of the above mentioned enzyme preparation and […] of antibiotic PS-6 as the substrate in a total of 3.0 ml (final concentration of antibiotic PS-6=[…]/ml=8.63 μg/ml; optical density at 301 nm=0.366).
The behavior of the antibiotic PS-7 (sodium salt) against the induced-type penicillinase produced by Bacillus careus 569 (ATCC 27348) as the substrate was examined according to the following method:
Sodium salt of the antibiotic PS-7 was dissolved in 100 mM phosphate buffer solution (pH 6.8) at the indicated concentration.
The induced-type penicillinase of Bacillus cereus 569 (ATCC 27348) was induced by Ampicillin and partially purified by CM cellulose (Brown Co.) column chromatography.
The solution of the antibiotic PS-7 that was served as the substrate was warmed at 30° C. […] The reaction was carried out at 30° C. and a decrease in the substrate, antibiotic PS-7, was monitered by the absorbance at 308 nm.
A balance of absorbance at 308 nm was determined to be ε=9720 on the assumption that the ε value of the antibiotic PS-7 is 10,800 based on the decrease in the absorbance when pure preparation of the antibiotic PS-7 was completely decomposed by the enzyme above mentioned.
A reaction mixture containing 10 μl of the penicillinase preparation and 102 mμ moles of the antibiotic PS-7 (final concentration: 34 mμ moles/ml) in a total volumn of 3.0 ml was incubated under the conditions mentioned above and change of decreasing concentration of the antibiotic PS-7 was measured in relation to the incubation time.

Citrobacter freundii E-9 = test: Potentiating and synergistic effect, pulp disc inhibition zone on agar plate; assay type: cell-based; settings: Table 6, disc 20 μl, PS-6 240 μg/ml, reference antibiotics 10,000 μg/ml
Protocol: (§1) 10 ml of 2.5 folds diluted nutrient agar (pH 7.0) containing 50 μg/ml of penicillin G or cephaloridine was seeded with the β-lactamase producing and β-lactam-resistant microorganisms and poured in a 9 cm Petri dish to provide the bio-assay agar plate. On this assay plate, 8 mm of pulp discs each containing 20 μl of antibiotic PS-6 solution at the concentration of 240 μg/ml were placed and incubated at 35° C. for 18 hours before reading the inhibition zones. A control assay plate was similarly prepared without penicillin G or cephaloridine. As reference antibiotics, 10,000 μg/ml of penicillin G or 20 μl of cephaloridine were disc-assayed under the same conditions.

Serratia marcescens S-18 = test: as above; assay type: cell-based; settings: Table 6, disc 20 μl, PS-6 240 μg/ml, reference antibiotics 10,000 μg/ml
Protocol: as §1

Proteus mirabilis P-6 = test: MIC, broth dilution method; settings: P6, 20 h, read-out: Minimum inhibitory concentration
Proteus rettgeri P-7 = test: MIC, broth dilution method; settings: Providencia rettgeri, P7, 20 h, read-out: Minimum inhibitory concentration
[4] = system: Diplococcus pneumoniae Type III; test: MIC, broth dilution method; assay type: cell-based; settings: Streptococcus pneumoniae, 20 h; Table 5; 10% horse blood supplemented into the medium; read-out: Minimum inhibitory concentration
[5] = system: Staphylococcus aureus FDA 209P; test: MIC, broth dilution method; assay type: cell-based; settings: FDA209P, Table 5, 35° C. 20 hours, read-out: Minimum inhibitory concentration
[6] = system: Bacillus subtilis ATCC 6633; test: MIC, broth dilution method; settings: ATCC6633, 20 h, read-out: Minimum inhibitory concentration
[7] = system: Streptococcus pyogenes NY-5; test: MIC, broth dilution method; settings: Streptococcus pyogenes, NY5, 20 h, read-out: Minimum inhibitory concentration
[8] = agar containing 50 μg/ml of cephaloridine
[9] = agar containing 50 μg/ml of penicillin G

| Compound | MIC [1] [µg/mL] | MIC [2] [µg/mL] | Km [3] [µM] | Behavior against β-lactamase [3] | zone of inhibition at 240 µg/mL (Citrobacter freundii E-9; Citrobacter freundii, E9, 18 h, plate without penicillin G or cephaloridine, read-out: Inhibition zone, Control) [mm] | Inhibition zone, with cephaloridine (Citrobacter freundii E-9; [8]) [mm] | Inhibition zone, with penicillin G (Citrobacter freundii E-9; [9]) [mm] | zone of inhibition at 240 µg/mL (Serratia marcescens S-18; Serratia marcescens, S18, 18 h, plate without penicillin G or cephaloridine, read-out: Inhibition zone, Control) [mm] | Inhibition zone, with cephaloridine (Serratia marcescens S-18; [8]) [mm] | Inhibition zone, with penicillin G (Serratia marcescens S-18; [9]) [mm] | MIC (Proteus mirabilis P-6) [µg/mL] | MIC (Proteus rettgeri P-7) [µg/mL] | MIC [4] [µg/mL] | MIC [5] [µg/mL] | MIC [6] [µg/mL] | MIC [7] [µg/mL] |
| --- | --- | --- | --- | --- | --- | --- | --- | --- | --- | --- | --- | --- | --- | --- | --- | --- |
| CCC1C(=O)N2C(C(=O)O)=C(SC=CNC(C)=O)CC12 (stereo not drawn) [Antibiotic PS-7] | < 0.19 | < 0.19 | 13 | inactivated | – | – | – | – | – | – | – | – | – | – | – | – |
| CC(=O)NCCSC1=C(C(=O)O)N2C(=O)C(C(C)C)C2C1 (stereo not drawn) [Antibiotic PS-6] | – | – | 17.7 | inactivated | 22 | 25.0 | 23.0 | 20 | 26.0 | 22.0 | 12.5 (≈ 40 µM) | 6.25 (≈ 20 µM) | 0.17 (≈ 0.544 µM) | 0.33 (≈ 1.06 µM) | 1.34 (≈ 4.29 µM) | 0.33 (≈ 1.06 µM) |
